Laboratory results taken from publication PMC3419223, “Transient Receptor Potential Ankyrin 1 Channel Localized to Non-Neuronal Airway Cells Promotes Non-Neurogenic Inflammation” (PLoS ONE, 2012).

How the values were obtained:
[1] = tested on: C57BL/6 mice, Trpa1+/+ or Trpa1-/- mice; test: KC (CXCL-1) release in bronchoalveolar lavage fluid, ELISA; assay type: in vivo, mouse; conditions: HC-030031 300 mg/kg i.g.; L-733,060 2 µmol/kg i.v.; C57BL/6 mice
Protocol: To defunctionalize/desensitize TRPV1 expressing primary sensory neurons, resiniferatoxin (RTX) was administered to C57BL/6 mice, as previously described, [40]. Briefly, mice were treated subcutaneously (s.c.) with a single injection of RTX (50 µg/kg) or its vehicle (10% ethanol and 10% tween 80 in isotonic saline) into the scruff of the neck under a light ether anesthesia to avoid unnecessary pain. Experiments were carried out 7 days after RTX treatment when responses to both TRPV1 and TRPA1 agonists in the treated mice were abolished, [40].
Trpa1^+/+ or Trpa1^−/− B6129P mice (5 per group) were exposed acutely to the cigarette smoke (CS) produced with commercial cigarettes (Marlboro Red, 12 mg of tar, 0.9 mg of nicotine each), by using a “nose-only” exposure unit. The smoke produced by cigarette burning was introduced into the exposure chamber (inner volume = 11.61 l) with the airflow generated by a mechanical ventilator (7025 Rodent Ventilator, Ugo Basile) at a rate of 250 ml/min [58]. A second mechanical ventilator was used to provide room air for dilution (1∶8) of the smoke stream. Mice were exposed to the smoke of 5 cigarettes per exposure period, twice daily, for 3 consecutive days, and sacrificed 24 hours later. Genotype-, age-, strain- and sex-matched control animals were exposed to air only in the same manner for the same duration of time. Anesthetized C57BL/6, and Trpa1^+/+ or Trpa1^−/− (C57BL/6) mice were intratracheally administered with (30 µl) acrolein (5 mM), capsaicin (100 µM), SP (25 nM) and CSE (1 OD) or their vehicles (isotonic saline, 1% ethanol in isotonic saline and isotonic saline) and sacrificed 24 hours later. The NK1 receptor antagonist, L-733,060 (2 µmol/kg i.v.; Tocris) or its vehicle (isotonic saline) were administered 15 min before the stimulus, and i.g. HC-030031 (300 mg/kg) or its vehicle (0.5% CMC in isotonic saline 0.9%) were administered 1 hour before the stimulus. In another set of experiments ACR (5 mM, i.t.), or its vehicle, has been administered in C57BL/6 mice desensitized to RTX (50 µg/kg; s.c.). Animals were sacrificed 24 hours after the last exposure/treatment with an overdose of anesthetic followed by exsanguination, and the lungs were lavaged using a cannula inserted into the trachea and instilling 1 ml of Hank's Buffer added with HEPES 10 mM and EDTA 10 mM three times. […] BAL were centrifuged at 200× g at 4°C for 10 min, and the cell-free supernatants were stored at −80°C for cytokine determination. Frozen cell-free BAL was analyzed for keratinocyte chemoattractant (CXCL-1/KC, the murine analogue of IL-8) release by using a commercial ELISA-assay (Invitrogen).

[2] = biological target: T1, TRPA1 (Homo sapiens, UniProt O75762); test: Calcium imaging (Fura-2) of TRPA1 agonist responses in human airway/lung cells; assay type: cell-based; conditions: antagonist 10 µM
T1 construct: cultured human airway cells, including fibroblasts, epithelial and smooth muscle cells express functional TRPA1 channels; endogenous in cells; host or cells: SAEC, NHLF, HBSMC (Lonza, primary); A549, IMR90 (ATCC)
Protocol: Human small airway epithelial cells (SAEC), normal human lung fibroblasts (NHLF) and human bronchial smooth muscle cells (HBSMC) were purchased from Lonza. Human alveolar type II epithelium-like adherent cell line (A549) and human lung embryonic fibroblast (IMR90) were purchased from American Type Culture Collection (Manassas, VA). SAEC and NHLF were cultured respectively in SAGM and FBM medium (Lonza) according to the manufacturer's instructions. IMR90 and HBSMC were cultured in DMEM supplemented with 10% FBS, 2 mM glutamine, 100 U penicillin and 100 µg/ml streptomycin (Sigma-Aldrich), and A549 were cultured in RPMI supplemented with 10% FBS, 2 mM glutamine, 100 U penicillin, 100 µg/ml streptomycin and 1 mM HEPES (Sigma-Aldrich). All cells were cultured in an atmosphere of 95% air and 5% CO2 at 37°C.
CSE was generated as previously reported. Briefly, aqueous CSE was obtained from the combustion of four cigarettes (Marlboro Red, 12 mg of tar, 0.9 mg of nicotine each) bubbled through 50 ml of buffer and subsequently filtered through a 0.2-µm pore filter (Millipore). To ensure reproducibility among different CSE batches, the absorbance (optical density; OD) measured at 320 nm was used as a measure of the “strength” of the extract. Dilutions were made with buffer to obtain the desired absorbance. The CSE was freshly prepared on the day of the experiment and used immediately after preparation.
For calcium fluorescence measurements, cells were incubated with 5 µM Fura-2AM ester (Alexis Biochemicals) for 40 minutes at 37°C. Intracellular calcium levels were measured and recorded with a dynamic image analysis system (Laboratory Automation 2.0; RC Software). Fluorescence was measured during excitation at 340 and 380 nm, and after correction for the individual background fluorescence signals, the ratio of the fluorescence at both excitation wavelengths (Ratio340/380) was monitored. Experiments were performed using buffer solution containing (in mM): 150 NaCl, 6 KCl, 1 MgCl2, 1.5 CaCl2, 10 glucose, 10 HEPES at pH 7.4. Cells were stimulated with cinnamaldehyde (0.1–3000 µM), acrolein (0.1–3000 µM), CSE (0.001–0.5 OD), capsaicin (1 µM) and the activating peptide (SLIGKV-NH2) of the human PAR-2 receptor (hPAR-2 AP; 100 µM), or their respective vehicles (0.3% DMSO,aqueous buffer or 1% ethanol). HC-030031 and AP18 vehicles (used in all the in vitro experiments) were 3% DMSO and 1% DMSO, respectively. Results are expressed as the increase of Ratio340/380 over the baseline normalized to the maximum effect induced by ionomycin (5 µM) added at the end of the experiment.

T1 sequence (O75762 whole entry): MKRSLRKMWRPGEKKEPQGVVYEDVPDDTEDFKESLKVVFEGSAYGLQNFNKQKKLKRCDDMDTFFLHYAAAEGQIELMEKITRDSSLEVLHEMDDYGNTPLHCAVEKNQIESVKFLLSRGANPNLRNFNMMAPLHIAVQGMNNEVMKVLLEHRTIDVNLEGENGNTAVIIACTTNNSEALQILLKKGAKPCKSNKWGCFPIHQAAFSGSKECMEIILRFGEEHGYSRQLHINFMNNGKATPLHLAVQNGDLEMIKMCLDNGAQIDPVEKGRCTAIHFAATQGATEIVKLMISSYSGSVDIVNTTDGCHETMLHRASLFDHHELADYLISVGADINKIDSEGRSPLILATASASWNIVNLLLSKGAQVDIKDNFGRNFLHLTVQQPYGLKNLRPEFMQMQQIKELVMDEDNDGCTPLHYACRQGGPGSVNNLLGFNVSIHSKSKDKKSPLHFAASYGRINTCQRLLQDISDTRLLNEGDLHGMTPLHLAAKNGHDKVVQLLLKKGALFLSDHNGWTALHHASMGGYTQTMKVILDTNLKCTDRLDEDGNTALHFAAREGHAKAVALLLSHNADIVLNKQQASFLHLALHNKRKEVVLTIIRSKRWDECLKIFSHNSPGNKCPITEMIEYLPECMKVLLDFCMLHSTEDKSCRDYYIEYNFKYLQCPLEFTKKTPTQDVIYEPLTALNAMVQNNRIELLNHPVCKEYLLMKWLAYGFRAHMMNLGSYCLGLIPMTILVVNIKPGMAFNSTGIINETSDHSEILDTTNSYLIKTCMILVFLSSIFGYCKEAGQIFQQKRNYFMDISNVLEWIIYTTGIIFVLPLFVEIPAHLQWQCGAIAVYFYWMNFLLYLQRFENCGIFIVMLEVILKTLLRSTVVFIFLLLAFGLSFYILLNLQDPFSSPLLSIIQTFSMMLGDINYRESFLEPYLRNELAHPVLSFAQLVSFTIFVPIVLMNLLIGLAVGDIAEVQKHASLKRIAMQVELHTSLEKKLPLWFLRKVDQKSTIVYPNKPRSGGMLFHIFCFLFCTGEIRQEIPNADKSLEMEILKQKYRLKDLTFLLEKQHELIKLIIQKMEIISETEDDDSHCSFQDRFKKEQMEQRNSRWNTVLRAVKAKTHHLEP

## CC(C)c1ccc(NC(=O)Cn2cnc3c2c(=O)n(C)c(=O)n3C)cc1 [HC-030031]
[1]
  effect of pretreatment on KC release evoked by acrolein or CSE: significantly reduced
[2]; A549 and IMR90
  effect of antagonist on calcium response evoked by CNM, ACR or CSE: abolished
[2]; SAEC, NHLF, HBSMC
  effect of antagonist on calcium responses to CNM, ACR and CSE: prevented
